These are literature values, as cited in patent publication US20030113384A1, “Antimicrobial compositions for mastitis control” (Ecolab Inc., priority 1999, published 2003).

Molecules are shown by their SMILES.

The term pKa denotes the negative logarithm of the acid dissociation constant.

For the compound `CCCCCCC(=O)O` [heptanoic acid], the pKa is 4.4.
